Data as given in patent US12559750B2, “Methods and compositions for treatment of polycystic kidney disease” (Regulus Therapeutics Inc., priority 2021, dated 2026).
e = 2'-O-(2-methoxyethyl) (MOE); k = constrained ethyl (cEt); d = 2'-deoxy (DNA); m = 2'-O-methyl; f = 2'-fluoro

Assays:
Pcy/DBA mice = assay: Efficacy in Pcy/DBA mouse model of PKD, alone and with tolvaptan; type: in vivo; details: 0.3% Tolvaptan in chow alone (vehicle SC);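 also: dosing began at 6 weeks of age, with endpoints collected 7 days after the last dose and PBS-injected wild-type DBA/2J mice as the normal reference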
Method: The efficacy of RG-NG-1015 was also evaluated in the Pcy/DBA mouse model of PKD alone and in combination with tolvaptan.
As outlined in FIGS. 6A and 6B, five groups of male Pcy/DBA mice (n=13 per treatment group) were treated subcutaneously with PBS or RG-NG-1015 at 25, 5, 1, or 0.2 mg/kg once every two weeks (Q2W). Two groups of male Pcy/DBA mice (n=13 per group) were also treated with RG-NG-1015 at 50 mg/kg once every four weeks (Q4W) or at 12.5 mg/kg once weekly (QW). Another four groups of male Pcy/DBA mice (n=13 per group) were treated subcutaneously with PBS or RG-NG-1015 at 25, 5, or 1 mg/kg Q2W in combination with tolvaptan at 0.3% (w/w chow) ad libitum. A group of male WT-BDA/2J mice received subcutaneous injections of PBS Q2W was included in the study as a normal range reference. Mice were randomized into treatment groups at 5 weeks of age, and treatment started at 6 weeks of age for 17 weeks and were sacrificed 7 days after the final treatment. Kidney weight, body weight, kidney cyst index, urine Ngal-to-Creatinine ratio (Ngal/Cr) were measured.

miR-17 [1] = assay: microRNA polysome shift assay (miPSA) in kidney of wild type mice; type: in vivo, mouse; design: scale not given here; details: seven days later
Method: In vivo potency was evaluated using the microRNA polysome shift assay (miPSA). This assay was used to determine the extent to which compounds directly engage the miR-17 target in the kidney in normal and PKD mice. The miPSA relies on the principle that active miRNAs bind to their mRNA targets in translationally active high molecular weight (HMW) polysomes, whereas the inhibited miRNAs reside in the low MW (LMW) polysomes. Treatment with anti-miR results in a shift of the microRNA from HMW polysomes to LMW polysomes. Thus, the miPSA provides a direct measurement of microRNA target engagement by a complementary anti-miR (Androsavich et al., Nucleic Acids Research, 2015, 44: e13).
Wild type mice were administered a single dose of 0.3 mg/kg, 3 mg/kg, or 30 mg/kg. Kidney tissue was collected seven days later and subjected to the miPSA. The mean displacement score for each treatment is shown in Table 15 (PBS, n=17; RGLS4326 30 mg/kg, n=10; all other treatments, n=4-5). The tested oligonucleotides displaced miR-17 from translationally active polysome (as measured by miPSA) in normal mouse kidneys.

AMPA-R (GluA1/GluA4) = molecular target: T1, AMPA-R (GluA1/GluA4) (Homo sapiens, UniProt P42261+P48058); assay: Manual whole-cell patch clamp, ChanTest GluA1/GluA4 EZCells; type: cell-based
T1 construct: host or cells: ChanTest GluA1/GluA4 EZCells
Method: To evaluate functional antagonism of anti-miR-17 oligonucleotides towards the AMPA-R, certain oligonucleotides were tested using the manual whole-cell patch clamp technique, which records membrane currents as a measure of AMPA-R activity.
Manual whole-cell patch clamp studies were performed by Metrion Biosciences (Cambridge, UK). Whole-cell voltage clamp experiments were performed at room temperature (18-21° C.) using an EPC10 patch clamp amplifier using Patchmaster software (HEKA Elektronik). Glass patch pipettes were fabricated from borosilicate glass capillaries (Harvard Apparatus) to resistances between 1.4 and 2.5 MΩ. Membrane currents were recorded using the whole-cell patch clamp technique. ChanTest® GluA1/GluA4 EZCells were clamped at a holding potential of −80 mV and membrane currents elicited by 10 μM(S)-AMPA delivered using a VC38 perfusion system (ALA Scientific Instruments). The […] current amplitude values were measured with each application of 10 μM(S)-AMPA. The fractional change of current amplitude produced by each concentration of compound was calculated relative to the control current (pre-compound) and expressed as percentage change (% inhibition) for each cell. RGLS4326 was tested in a separate study from all other compounds in Table 6.

miR-17 [2] = assay: miR-17 luciferase sensor assay in HeLa cells; type: cell-based; details: for EC50: HeLa cells, 18- to 24-hour transfection
Method: The in vitro potency of certain compounds was evaluated using a miR-17 luciferase sensor assay which uses a luciferase reporter vector for miR-17, with two fully complementary miR-17 binding sites in tandem in the 3′-UTR of the luciferase gene. HeLa cells were co-transfected with the luciferase reporter vector and an exogenous miR-17-expression vector that acted to repress the luciferase signal.

AMPA-R = assay: [3H]AMPA radioligand binding assay on rat brain synaptic membranes; details: for % Inhibition @ Concentration 100 uM: Table 8 (3′-terminal nucleobase/sugar variants); for % Inhibition @ Concentration 0.1 uM: Table 8, 0.1 uM; for % Inhibition @ Concentration 1 uM: Table 8, 1 uM; for % Inhibition @ Concentration 10 uM: Table 8, 10 uM;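 as to all read-outs here: competition binding in which test compounds at rising concentrations displace [3H]AMPA from AMPA-R on rat brain synaptic membranes, with reduced bound radioligand as read-out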
miR-17 [3] = assay: miR-17 PD-Sig in mouse kidney cell lines; type: cell-based
Method: The activity of certain compounds was evaluated using a mouse miR-17 Pharmacodynamic-Signature (miR-17 PD-Sig), which consists of the expression of 18 unique miR-17 target genes normalized by six reference housekeeping genes, to provide an unbiased and comprehensive assessment of miR-17 activity. The mouse miR-17 PD-Sig score was the calculated average of the 18 genes' individual log 2 fold changes (normalized by six housekeeping genes) compared to mock transfection (Lee et al., Nat. Commun., 2019, 10, 4148).
The PD-Sig for RGLS4326 in mIMCD3 cells (77.2, indicated by “*”) was not generated in this experiment; the value in Table 14 is that reported by Lee et al., Nat. Commun., 2019, 10, 4148. Blank cells in the table indicate that a compound was not tested in a particular cell line.

[4] = system: KspCre/Pkd1F/RC (Pkd1-F/RC) mice; assay: Efficacy in Pkd1-F/RC mouse model of ADPKD; type: in vivo; details: 20 mg/kg SC on days 8, 10, 12, 15 of age
Method: Mice were sacrificed at 18 days of age, and kidney weight, body weight, cyst index, serum creatinine level, and blood urea nitrogen (BUN) level were measured. BUN level is a marker of kidney function. A higher BUN level correlates with poorer kidney function, thus a reduction in BUN level is an indicator of reduced kidney injury and damage and improved function. Statistical significance was calculated by one-way ANOVA with Dunnett's multiple correction.

mice = details: in vivo
Method: Each compound was tested in a single dose at 2000 mg/kg, and at escalating doses (100, 450, and 2000 mg/kg).

C57Bl/6J male mice = assay: ICV maximum tolerated dose study, Study 1; type: in vivo, mouse; details: for Mortality/total number of mice: 7-day
Method: Compounds (RG-NG-1017, RGLS4326, RG-NG-1001) were evaluated in a pilot maximum tolerated dose (MTD) study (discussed below). RG-NG-1017, RGLS4326 and RG-NG-1001 were initially evaluated at 4 dose-levels each. RG-NG-1017 was included for evaluation as a non-AMPA-R binding compound, as compared to RGLS4326 and RG-NG-1001, which bind AMPA-R. C57Bl/6J male mice (Jackson Laboratories), age 6-7 weeks, were used in this study. Mice were assigned randomly to treatment groups, and the study was blinded. Animals were allowed to acclimate for no less than 5 days and housed on a 12 hr light/dark cycle (lights on 7:00 AM). No more than 4 mice were house in each cage in a ventilated cage rack system. The diet consisted of standard rodent chow and water ad libitum.
The following parameters were used for this study: • 1. Route(s) of administration: intracerebroventricular (ICV) dosing of RG-NG-1017, RG-NG-1001, RGLS4326 • 2. Dose Volume(s): 4 μL • 3. Formulation(s): vehicle, Ca^2+ and Mg^2+ free dPBS • 4. Dose Frequency: Once • 5. Study duration: 8 Days • 6. Number of Groups: 3 • 7. Number of animals per group: (2-4 each group) • 8. Total number of animals: […]
For the ICV administration, mice were anesthetized and positioned for injections. The skin over the skull was incised, and a small hole was made in the skull above the target using a microdrill. The stereotactic coordinates were anteroposterior (AP), −0.4 mm; mediolateral (ML), +/−1.0-1.5 mm; dorsoventral (DV), −3.0 mm from the bregma for injection into both the right and left lateral cerebral ventricles (Hironaka et al, 2015). Animals were injected unilaterally with 4 μl into the right lateral cerebral ventricle. Compounds were injected over 1-2 min, and the needle was left in place for 0.5-1 min prior to withdrawal. The incision was closed with sutures, wound clips, or VetBond.
Following ICV treatment (Day 0), animals were monitored for 7 days in which daily health checks, body weight, and mortality was recorded. On Day 7, brain and kidney were collected and fixed (10% formalin) and stored pending histology.

T1 sequence (P42261 19-906): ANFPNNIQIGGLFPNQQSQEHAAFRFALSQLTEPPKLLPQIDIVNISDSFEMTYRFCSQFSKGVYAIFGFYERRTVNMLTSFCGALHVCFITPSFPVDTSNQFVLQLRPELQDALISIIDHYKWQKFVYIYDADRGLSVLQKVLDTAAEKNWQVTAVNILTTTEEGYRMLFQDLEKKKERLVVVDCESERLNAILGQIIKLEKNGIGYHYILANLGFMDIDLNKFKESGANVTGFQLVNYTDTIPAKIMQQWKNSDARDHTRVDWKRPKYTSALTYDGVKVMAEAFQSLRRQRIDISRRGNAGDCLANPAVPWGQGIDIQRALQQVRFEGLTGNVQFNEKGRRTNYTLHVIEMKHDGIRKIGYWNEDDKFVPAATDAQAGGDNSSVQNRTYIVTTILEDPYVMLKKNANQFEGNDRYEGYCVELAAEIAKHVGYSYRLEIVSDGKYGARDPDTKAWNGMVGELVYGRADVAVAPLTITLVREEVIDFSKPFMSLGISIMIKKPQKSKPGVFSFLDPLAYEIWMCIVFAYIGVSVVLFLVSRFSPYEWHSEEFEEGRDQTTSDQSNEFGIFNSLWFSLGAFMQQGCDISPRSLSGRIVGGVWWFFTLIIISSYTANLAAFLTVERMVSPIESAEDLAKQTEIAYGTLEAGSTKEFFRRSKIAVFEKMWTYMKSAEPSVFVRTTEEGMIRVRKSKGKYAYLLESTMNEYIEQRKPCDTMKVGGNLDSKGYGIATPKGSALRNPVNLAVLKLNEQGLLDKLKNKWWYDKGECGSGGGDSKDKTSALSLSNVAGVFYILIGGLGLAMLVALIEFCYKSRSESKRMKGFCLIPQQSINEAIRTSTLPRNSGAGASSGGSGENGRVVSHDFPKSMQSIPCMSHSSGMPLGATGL
T1 sequence (P48058 21-902): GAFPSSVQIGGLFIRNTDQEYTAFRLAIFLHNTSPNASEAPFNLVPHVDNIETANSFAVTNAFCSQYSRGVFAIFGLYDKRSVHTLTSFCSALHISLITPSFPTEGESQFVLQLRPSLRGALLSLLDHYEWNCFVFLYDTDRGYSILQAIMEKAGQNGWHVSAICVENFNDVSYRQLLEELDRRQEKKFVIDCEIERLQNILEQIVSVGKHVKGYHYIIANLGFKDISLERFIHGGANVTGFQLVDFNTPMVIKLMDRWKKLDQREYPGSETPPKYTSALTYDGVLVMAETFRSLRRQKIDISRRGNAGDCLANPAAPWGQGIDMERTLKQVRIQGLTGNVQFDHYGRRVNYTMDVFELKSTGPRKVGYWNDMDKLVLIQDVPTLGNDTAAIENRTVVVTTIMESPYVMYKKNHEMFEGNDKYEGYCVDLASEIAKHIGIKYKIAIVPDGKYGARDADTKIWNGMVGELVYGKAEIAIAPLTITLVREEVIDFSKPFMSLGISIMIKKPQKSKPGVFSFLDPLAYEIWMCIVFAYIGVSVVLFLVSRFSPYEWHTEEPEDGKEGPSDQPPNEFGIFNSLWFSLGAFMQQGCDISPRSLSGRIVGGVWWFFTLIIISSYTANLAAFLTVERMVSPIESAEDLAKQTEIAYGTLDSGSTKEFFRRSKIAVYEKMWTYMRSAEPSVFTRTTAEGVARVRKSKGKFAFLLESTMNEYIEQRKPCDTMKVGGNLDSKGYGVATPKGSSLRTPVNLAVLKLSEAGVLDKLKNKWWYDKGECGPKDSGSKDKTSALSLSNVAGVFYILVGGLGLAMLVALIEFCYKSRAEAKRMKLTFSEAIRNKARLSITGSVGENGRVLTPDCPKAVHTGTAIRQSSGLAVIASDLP

Molecule | miPSA Displacement Score, Mean (miR-17 [1]; single dose 30 mg/kg) | % Inhibition on membrane currents evoked with 10 uM (s)-AMPA (Mean ± SD) (AMPA-R (GluA1/GluA4); 0.3 uM compound) | % Inhibition on membrane currents evoked with 10 uM (s)-AMPA (Mean ± SD) (AMPA-R (GluA1/GluA4); 3 uM compound) | Log2FC (37.5 nM) (miR-17 [2]) | IC50 (AMPA-R; Experiment #1) | % Inhibition @ 0.1 uM (AMPA-R; Experiment #1, 0.1 uM) | % Inhibition @ 1 uM (AMPA-R; Experiment #1, 1 uM) | % Inhibition @ 10 uM (AMPA-R; Experiment #1, 10 uM) | % Inhibition @ 100 uM (AMPA-R; Experiment #1, 100 uM) | IC50 (AMPA-R; Experiment #2) | % Inhibition @ 0.1 uM (AMPA-R; Experiment #2, 0.1 uM) | % Inhibition @ 1 uM (AMPA-R; Experiment #2, 1 uM) | % Inhibition @ 10 uM (AMPA-R; Experiment #2, 10 uM) | % Inhibition @ 100 uM (AMPA-R; Experiment #2, 100 uM) | IC50 (AMPA-R; Experiment #3) | IC50 (AMPA-R; Table 8) | % Inhibition @ Concentration 100 uM (AMPA-R) | % Inhibition @ Concentration 0.1 uM (AMPA-R) | % Inhibition @ Concentration 1 uM (AMPA-R) | % Inhibition @ Concentration 10 uM (AMPA-R) | further results
Cc1ccccc1C(=O)Nc1ccc(C(=O)N2CCCC(O)c3cc(Cl)ccc32)c(C)c1 (centres unmarked) [Tolvaptan, tolvaptan, reference compound] |  |  |  |  |  |  |  |  |  |  |  |  |  |  |  |  |  |  |  |  | Mean Cystic Area (Pcy/DBA mice): 44.68%; Mean Cystic Area % Inhibition (Pcy/DBA mice): 29.2%; Mean KW/BW (Pcy/DBA mice): 59.3 mg/g; Mean KW/BW % Inhibition (Pcy/DBA mice): 44.9%; Mean Urine Ngal/Cr (Pcy/DBA mice): 8.73 mg/mg; Mean Urine Ngal/Cr % Inhibition (Pcy/DBA mice): 62.1%
ASCSAMAFUFGFCMASCS [RG5124, reference compound] | 0.5935 | 14.1 ± 7.2% | 42.1 ± 9.4% | 0.40 | > 100000 nM | 0.4% | 12.9% | −3.7% | −5.1% | > 100000 nM | −1.2% | 1.6% | −4.2% | 7.2% | > 100000 nM | ≥ 100000 nM | 10.1% | −8.6% | −0.6% | 4.4% | % Inhibition @ 0.1 uM (AMPA-R; Experiment #3, 0.1 uM): 5.1%; % Inhibition @ 1 uM (AMPA-R; Experiment #3, 1 uM): 9.3%; % Inhibition @ 10 uM (AMPA-R; Experiment #3, 10 uM): 16.1%; % Inhibition @ 100 uM (AMPA-R; Experiment #3, 100 uM): 23%; EC50 (miR-17 [3]; D52B5, mouse, PKD): 507 nM; BW/KW Ratio, Mean Difference vs. PBS [4]: 26.14; Serum BUN, Mean Difference vs. PBS [4]: +8.138; Serum Creatine, Mean Difference vs. PBS [4]: +0.07838; Mean BW/KW Ratio ([4]; sacrificed at 18 days): 91.75; Mean Serum BUN ([4]; sacrificed at 18 days): 50.61; Mean Serum Creatine ([4]; sacrificed at 18 days): 0.2403
ASGSCMAFCFUFUMUSCS [RG-NG-1016] | 1.134 | 16.0 ± 6.2% | 27.1 ± 9.8% | 2.32 |  |  |  |  |  | > 100000 nM | 4.7% | 10.4% | 12.3% | 5.9% |  |  |  |  |  |  | miPSA Displacement Score, Mean (miR-17 [1]; single dose 3 mg/kg): 2.263; miPSA Displacement Score, Mean (miR-17 [1]; single dose 0.3 m/kg): 1.892; functional antagonism towards AMPA-R relative to RGLS4326 (AMPA-R (GluA1/GluA4); in words): reduced functional antagonism towards AMPA-R; EC50 (miR-17 [2]): 20.3 nM; EC50 (miR-17 [3]; mIMCD3, mouse, Normal): 146 nM; CNS toxicity in high-dose mouse toxicity studies (mice): no CNS-toxicity were observed; CNS-related findings noted (mice; mouse, sc, 2000 mg/kg): No
ASGSCSASCSUSUSUSGS [RG-NG-1001] |  | 80.5 ± 6.3% | 88.8 ± 4.5% |  | 170 nM | 41.1% | 76.2% | 89.1% | 91.3% | 190 nM | 42.2% | 68.3% | 90.1% | 93.5% | 100 nM | 150 nM | 102.9% | 41.9% | 81.3% | 99.3% | % Inhibition @ 0.1 uM (AMPA-R; Experiment #3, 0.1 uM): 59.4%; % Inhibition @ 1 uM (AMPA-R; Experiment #3, 1 uM): 84.8%; % Inhibition @ 10 uM (AMPA-R; Experiment #3, 10 uM): 94.6%; % Inhibition @ 100 uM (AMPA-R; Experiment #3, 100 uM): 96.6%; Mortality/total number of mice (C57Bl/6J male mice; single ICV 2.5 μg): 1/3; Mortality/total number of mice (C57Bl/6J male mice; single ICV 5 μg): 4/4; Mortality/total number of mice (C57Bl/6J male mice; single ICV 10 μg): 3/4; Mortality/total number of mice (C57Bl/6J male mice; single ICV 25 μg): 3/3; Mortality/total number of mice (C57Bl/6J male mice; single ICV 50 μg): 3/3; Mortality/total number of mice (C57Bl/6J male mice; single ICV 100 μg): 2/2; Mortality/total number of mice (C57Bl/6J male mice; single ICV 300 μg): 2/2; Mortality/total number of mice (C57Bl/6J male mice; single ICV 600 μg): 2/2; MTD (C57Bl/6J male mice; single ICV, C57Bl/6J mice, predicted from the study): under 2.5 μg; CNS toxicity in high-dose mouse toxicity studies (mice): ataxia, lethargy
GSCEAECETEGSTEADASGSCMAFCFUFUMUSGS (GCACTGTAAGCACUUUG; sugars from the 5' end keeeekedkkmfffmkk, backbone and methylation of C not given here) [RG-NG-1032] |  |  |  | 3.85 |  |  |  |  |  |  |  |  |  |  |  | 1170 nM | 92% | 24.3% | 43.8% | 78.3% | EC50 (miR-17 [2]): < 1 nM
